A word on the IC50: it is the midpoint of a concentration-inhibition curve.

A value given as a limit tells only on which side of the number the result lay.

In experiment [1] the test system is brain tumors and acute myeloid leukemia. Conditions: study published in Nature Medicine (2018); cited from earlier work.
The subject of another experiment is SF126. In words: Cell viability (CellTiter-Glo), SF126. It counts as cell-based. Conditions: Homo sapiens, SF-126; SF126 cell line, 3-4 days of culture. As for the experimental part: (§1) Cell viability was detected using the Promega CellTiter-Glo kit, the kit reflected cell viability by directly measuring intracellular ATP content. The inhibitory effect (IC50 value) of Gboxin, a mitochondrial oxidative phosphorylation pathway inhibitor, on different tumor cell lines was tested in the Example. The name, source, and culture condition of each tumor cell line were as follows: Cell line SF126 (JCRB, No. IFO50286) was cultured in 10% fetal bovine serum-containing EMEM medium (+P/S). […] Cell viability was detected using the Promega CellTiter-Glo kit, the kit reflected cell viability by directly measuring intracellular ATP content.
In general terms: ATP-based viability assays read luminescence as a measure of living cells.

The subject of the next experiment is WSU-DLCL2. As to the kind of experiment: Cell viability (CellTiter-Glo), WSU-DLCL2. It counts as cell-based. As to conditions: Homo sapiens, WSUDLCL2; WSU-DLCL2 cell line, 3-4 days of culture. As for the experimental part: as §1, with “WSU-DLCL2 (DSMZ,” for “SF126 (JCRB,”, “ACC-575)” for “IFO50286)”, “RPMI1640” for “EMEM”
Experiment [2] concerns mitochondrial oxidative phosphorylation pathway. In words: Oxygen consumption of NCI-H82 cell, Seahorse XFe metabolic analyzer. It counts as cell-based, human. Conditions: detection within 0.5 h, compared with control group, FIG. 1 (n=3). An excerpt: The oxygen was mainly consumed by mitochondrial oxidative phosphorylation pathway in the cell, thus the determination of oxygen consumption rate (OCR) of mitochondria could directly reflect the activity of mitochondrial oxidative phosphorylation pathway. The oxygen consumption of NCI-H82 cell in the presence or absence of Oligomycin A, Gboxin, S-Gboxin and IACS-010759, mitochondrial oxidative phosphorylation pathway inhibitors, was detected using Seahorse XFe metabolic analyzer in the present Example. NCI-H82 cell (ATCC, No. […] The control group in absence of mitochondrial oxidative phosphorylation pathway inhibitor was set. The detection of cell oxygen consumption was finished within 0.5 h.

The next experiment relates to G-401. In words: Cell viability (CellTiter-Glo), G-401. It is filed as cell-based. As to conditions: Homo sapiens; G-401 cell line, 3-4 days of culture. As to the method: as §1, with “G-401 (ATCC,” for “SF126 (JCRB,”, “CRL-1441)” for “IFO50286)”, “McCoy's 5a” for “EMEM”
For another experiment, the system named is 786-O. In words: Cell viability (CellTiter-Glo), 786-O. It is filed as cell-based. As to conditions: Homo sapiens, 786-0; 786-O cell line, 3-4 days of culture. As to the method:
as §1, with “786-O (ATCC,” for “SF126 (JCRB,”, “CRL-1932)” for “IFO50286)”, “RPMI1640” for “EMEM”

The next experiment has as its system MDA-MB-453. In words: Cell viability (CellTiter-Glo), MDA-MB-453. Conditions: Homo sapiens; MDA-MB-453 cell line, 3-4 days of culture. It is filed as cell-based. As for the experimental part: as §1, with “MDA-MB-453 (ATCC,” for “SF126 (JCRB,”, “HTB-131)” for “IFO50286)”, “Leibovitz's L-15” for “EMEM”
The test system of the next experiment is NCI-H82. In words: Cell viability (CellTiter-Glo), NCI-H82. It counts as cell-based. As to conditions: Homo sapiens; NCI-H82 cell line, 3-4 days of culture. As for the experimental part: as §1, with “NCI-H82 (ATCC,” for “SF126 (JCRB,”, “HTB-175)” for “IFO50286)”, “RPMI1640” for “EMEM”
For a further experiment, the system named is GB-1. In words: Cell viability (CellTiter-Glo), GB-1. It counts as cell-based. As to conditions: Homo sapiens; GB-1 cell line, 3-4 days of culture. As to the method:
Cell viability was detected using the Promega CellTiter-Glo kit, the kit reflected cell viability by directly measuring intracellular ATP content. The inhibitory effect (IC50 value) of Gboxin, a mitochondrial oxidative phosphorylation pathway inhibitor, on different tumor cell lines was tested in the Example. The name, source, and culture condition of each tumor cell line were as follows:
Cell line GB-1 (JCRB, No. IFO50489) was cultured in 10% fetal bovine serum-containing DMEM medium (+P/S).
The above tumor cells were cultured in the relevant medium (+P/S), and incubated for 3 h, then the gradient diluted Gboxin was added, and IC50 (50% inhibiting concentration) was measured after 3-4 days of culture.
Cell viability was detected using the Promega CellTiter-Glo kit, the kit reflected cell viability by directly measuring intracellular ATP content. In this experiment, the IC50 values of Oligomycin A or IACS-010759, a mitochondrial oxidative phosphorylation pathway inhibitor, on different tumor cells was determined.
The different tumor cells were cultured in the relevant medium (+P/S) as shown in Example 2, and incubated for 3 h, then the gradient diluted Oligomycin A or IACS-010759 was added respectively, and IC50 (50% inhibiting concentration) of Oligomycin A or IACS-010759 on different tumor cells was measured after 3-4 days of culture.

The subject of a further experiment is SW48. In words: Cell viability (CellTiter-Glo), SW48. Conditions: Homo sapiens; SW48 cell line, 3-4 days of culture. It is filed as cell-based. As for the experimental part: as §1, with “SW48 (ATCC,” for “SF126 (JCRB,”, “CCL-231)” for “IFO50286)”, “Leibovitz's L-15” for “EMEM”
A further experiment has as its system CFPAC-1. As to the kind of experiment: Cell viability (CellTiter-Glo), CFPAC-1. It counts as cell-based. As to conditions: Homo sapiens; CFPAC-1 cell line, 3-4 days of culture. As for the experimental part: as §1, with “CFPAC-1 (ATCC,” for “SF126 (JCRB,”, “CRL-1918)” for “IFO50286)”, “IMDM” for “EMEM”
Another experiment has as its system CFPAC-1 tumor. In words: Subcutaneous CFPAC-1 tumor-bearing nude mice. It is filed as in vivo. Conditions: nude mice inoculated with CFPAC-1; 10 mg/kg/day intraperitoneally; vs solvent vehicle; FIG. 27. The text has this:
(§2) To verify whether cells sensitive to mitochondrial oxidative phosphorylation pathway […] still maintained the sensitivity to oxidative phosphorylation pathway inhibitors in vivo, S-Gboxin was used to test the effectiveness in tumor-bearing mice subcutaneously inoculated with sensitive cells (NCI-H82) and insensitive cells (CFPAC-1).
(§3) 5×10^6 of NCI-H82, NCI-H82-NNMT^ov (inserting the NNMT gene into NCI-H82 cell using a viral vector to overexpress NNMT protein) and CFPAC-1 tumors were subcutaneously inoculated in nude mice to establish tumor-bearing mice. Each group of tumor-bearing mice was injected intraperitoneally with the S-Gboxin (a mitochondrial oxidative phosphorylation pathway inhibition) at a dose of 10 mg/kg/day, the inhibition effect of S-Gboxin on the tumor was investigated. The mice in control group was injected intraperitoneally with solvent vehicle in the same method, and the tumor volume was calculated as follows: tumor volume=½ length×width 2. The experiment result was shown in FIG. 25, FIG. 26, and FIG. 27.

The test system of the next experiment is NCI-H82-NNMT^ov tumor. As to the kind of experiment: Subcutaneous NCI-H82-NNMT^ov tumor-bearing nude mice. It is filed as in vivo. Conditions: nude mice inoculated with NCI-H82-NNMT^ov; 10 mg/kg/day intraperitoneally; compared with effect on NCI-H82 tumor; FIG. 26.
Text: as §2, §3

A further experiment concerns NCI-H82 tumor. In words: Subcutaneous NCI-H82 tumor-bearing nude mice. As to conditions: nude mice inoculated with NCI-H82; 10 mg/kg/day intraperitoneally; vs solvent vehicle; FIG. 25. It counts as in vivo.
Text: as §2, §3

`Cc1nc(-c2nc(-c3ccc(OC(F)(F)F)cc3)no2)nn1Cc1cccc(N2CCC(S(C)(=O)=O)CC2)c1` [IACS-010759]: the “inhibitory effect on brain tumors and acute myeloid leukemia” value in experiment [1] is “excellent inhibitory effect”. The IC50 in the experiment on SF126 is above 15 µM; in the experiment on WSU-DLCL2 it was 3.56 µM; in the experiment with G-401 it was 1.48 µM; in the experiment on 786-O, above 50 µM; in the experiment on MDA-MB-453, below 0.01 µM; in the experiment with NCI-H82, 0.168 µM. Also, the IC50 in the experiment on GB-1 was above 15 µM; in the experiment on SW48, below 0.01 µM; in the experiment on CFPAC-1, 55.7 µM. For the same compound, the “oxygen consumption of NCI-H82 cells” value in experiment [2] (1 μM inhibitor) was “significantly inhibit”.
Consider `CC(C)[C@@H]1CC[C@@H](C)C[C@H]1OC(=O)Cn1c(-c2cccc(C(F)(F)F)c2)[n+](C)c2ccccc21.[I-]` [S-Gboxin], for which the “inhibitory effect on subcutaneous tumor (tumor volume)” value in the experiment with CFPAC-1 tumor is “no significant inhibitory effect”; in the experiment with NCI-H82-NNMT^ov tumor it was “significantly weaker”. Also, the “oxygen consumption of NCI-H82 cells” value in experiment [2] (5 μM inhibitor) was “significantly inhibit”. The “inhibition of subcutaneous tumor (tumor volume)” value in the experiment with NCI-H82 tumor was “significantly inhibit”.

The values above are taken from patent US20230355647A1, “Marker for determining anti-cancer effects of mitochondrial oxidative phosphorylation pathway inhibitor” (NANJING SHIJIANG MEDICINE TECHNOLOGY CO., LTD, priority 2020, published 2023).
